Data reported in patent publication US10087187B2, “Imidazopyridazine derivatives as PI3KB inhibitors” (Janssen Pharmaceutica NV, priority 2014, dated 2018).
pIC50, pKd: −log10 of the molar value. Read-outs that look alike come from different tables or passages of the source.

What was measured:
PIK3Cα_h = PIK3Cα_h (Homo sapiens (Human), UniProt P42336); test: KINOMEscan enzyme binding assay, PIK3Cα; conditions: DiscoveRx
Description: (§1) Enzyme Binding Assays (KINOMEscan®) Kinase enzyme binding affinities of compounds disclosed herein were determined using the KINOMEscan technology performed by DiscoveRx Corporation, San Diego, Calif., USA (www.kinomescan.com).

[1] = system: Akt phosphorylated at Ser473 in PC-3 cells; test: Cellular assay: phosphorylation of Akt (Ser473) in PC-3 cells, MSD ELISA; format: cell-based; conditions: 60 min incubation with compound, read-out: IC50 pAkt_S473
Description: (§2) Cellular activity of PI3Kβ inhibitors was determined by quantifying the phosphorylation of Akt in PC-3 cells. Akt phosphorylated at Ser473 and Thr308 were measured using an enzyme-linked immunosorbent assay (ELISA; Meso Scale Discovery (MSD), Gaithersburg, Md.) and specific primary antibodies from MSD.
(§3) On day 1, PC3 cells (ATCC # […]) were seeded into PerkinElmer MW96 plates at 25.000 cells per well, in 75 μl complete culture medium (DMEM (Dulbecco's Modified Eagle's Medium) high glucose, AQmedia™, D0819, Sigma-Aldrich) containing 10% heat inactivated FCS (Fetal Bovine Serum) and incubated at 37° C., 5% CO2 during 24 hours. On day 2, compound or DMSO (dimethyl sulfoxide) (0.3%) was added and cells were further incubated for 60 min at 37° C., 5% CO2 in a total volume of 100 μl of medium.
(§4) The phosphoprotein assay was executed according to vendor instructions in the Phospho-Akt (Ser473) Assay Whole Cell Lysate Kit (MSD # K15100D-3) and the Phospho-Akt (Thr308) Assay Whole Cell Lysate Kit (MSD # K151DYD-3) using the lysis, blocking and wash buffer provided.
(§5) Briefly, at the end of the cell treatment period, media were removed by aspiration and adherent cells were lysed in 50 μl ice-cold lysis buffer. MSD plates are supplied pre-coated with capture antibodies for Phospho-Akt (Ser473 and Thr308). After blocking, lysates from tissue culture plates were added and plates were washed. Then, a solution containing the detection antibody (anti-total Akt conjugated with an electrochemiluminescent compound-MSD Sulfo-tag label) was added. The signals were detected using an MSD SECTOR Imager 6000 and are proportional to the phospho-Akt titres.
(§6) Data were processed. The percentage of inhibition was plotted against the log concentration of test compounds, and the sigmoidal log concentration-effect curve of best fit was calculated by nonlinear regression analysis. From these concentration-response curves, the IC50 values were calculated. Five concentrations were used for curve fitting.

PIK3Cβ_h = PIK3Cβ_h (Homo sapiens (Human), UniProt P42338); test: KINOMEscan enzyme binding assay, PIK3Cβ; conditions: DiscoveRx
Chain of PIK3Cβ_h (P42338 whole entry): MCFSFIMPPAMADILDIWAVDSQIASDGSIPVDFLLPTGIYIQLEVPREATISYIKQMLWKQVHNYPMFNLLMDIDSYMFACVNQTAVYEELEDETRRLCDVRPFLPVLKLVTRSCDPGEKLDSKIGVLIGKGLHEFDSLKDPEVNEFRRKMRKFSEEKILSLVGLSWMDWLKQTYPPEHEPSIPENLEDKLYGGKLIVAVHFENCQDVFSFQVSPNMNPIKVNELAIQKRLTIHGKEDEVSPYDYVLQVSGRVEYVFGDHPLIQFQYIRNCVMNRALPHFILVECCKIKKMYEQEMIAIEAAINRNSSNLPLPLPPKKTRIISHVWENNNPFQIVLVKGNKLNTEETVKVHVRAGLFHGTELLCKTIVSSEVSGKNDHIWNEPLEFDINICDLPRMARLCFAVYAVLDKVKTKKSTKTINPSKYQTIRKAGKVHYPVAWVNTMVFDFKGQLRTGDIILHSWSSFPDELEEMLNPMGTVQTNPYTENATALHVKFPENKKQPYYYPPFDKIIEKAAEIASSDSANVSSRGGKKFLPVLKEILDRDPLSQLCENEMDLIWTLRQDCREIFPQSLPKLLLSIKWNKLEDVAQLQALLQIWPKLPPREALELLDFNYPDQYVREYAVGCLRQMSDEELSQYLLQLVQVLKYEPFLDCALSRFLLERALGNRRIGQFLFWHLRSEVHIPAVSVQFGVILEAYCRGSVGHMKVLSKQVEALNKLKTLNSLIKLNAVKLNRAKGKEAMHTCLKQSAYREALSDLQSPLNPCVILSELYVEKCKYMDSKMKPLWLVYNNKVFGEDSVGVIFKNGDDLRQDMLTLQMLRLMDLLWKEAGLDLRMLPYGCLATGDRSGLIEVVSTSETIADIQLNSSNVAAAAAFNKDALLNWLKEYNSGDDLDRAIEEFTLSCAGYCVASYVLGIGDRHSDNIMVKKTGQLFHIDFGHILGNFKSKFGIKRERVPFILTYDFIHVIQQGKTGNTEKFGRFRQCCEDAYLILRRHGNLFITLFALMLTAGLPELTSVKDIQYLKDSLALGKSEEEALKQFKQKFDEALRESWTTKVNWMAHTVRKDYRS
Description: as §1, with “(www.kinomescan.com). Table A reports the obtained Kd values (nM), with the Kd being the inhibitor binding constant: […]” for “(www.kinomescan.com).”

PIK3Cγ_h = PIK3Cγ_h (Homo sapiens (Human), UniProt P48736); test: KINOMEscan enzyme binding assay, PIK3Cγ; conditions: DiscoveRx
Chain of PIK3Cγ_h (P48736 whole entry): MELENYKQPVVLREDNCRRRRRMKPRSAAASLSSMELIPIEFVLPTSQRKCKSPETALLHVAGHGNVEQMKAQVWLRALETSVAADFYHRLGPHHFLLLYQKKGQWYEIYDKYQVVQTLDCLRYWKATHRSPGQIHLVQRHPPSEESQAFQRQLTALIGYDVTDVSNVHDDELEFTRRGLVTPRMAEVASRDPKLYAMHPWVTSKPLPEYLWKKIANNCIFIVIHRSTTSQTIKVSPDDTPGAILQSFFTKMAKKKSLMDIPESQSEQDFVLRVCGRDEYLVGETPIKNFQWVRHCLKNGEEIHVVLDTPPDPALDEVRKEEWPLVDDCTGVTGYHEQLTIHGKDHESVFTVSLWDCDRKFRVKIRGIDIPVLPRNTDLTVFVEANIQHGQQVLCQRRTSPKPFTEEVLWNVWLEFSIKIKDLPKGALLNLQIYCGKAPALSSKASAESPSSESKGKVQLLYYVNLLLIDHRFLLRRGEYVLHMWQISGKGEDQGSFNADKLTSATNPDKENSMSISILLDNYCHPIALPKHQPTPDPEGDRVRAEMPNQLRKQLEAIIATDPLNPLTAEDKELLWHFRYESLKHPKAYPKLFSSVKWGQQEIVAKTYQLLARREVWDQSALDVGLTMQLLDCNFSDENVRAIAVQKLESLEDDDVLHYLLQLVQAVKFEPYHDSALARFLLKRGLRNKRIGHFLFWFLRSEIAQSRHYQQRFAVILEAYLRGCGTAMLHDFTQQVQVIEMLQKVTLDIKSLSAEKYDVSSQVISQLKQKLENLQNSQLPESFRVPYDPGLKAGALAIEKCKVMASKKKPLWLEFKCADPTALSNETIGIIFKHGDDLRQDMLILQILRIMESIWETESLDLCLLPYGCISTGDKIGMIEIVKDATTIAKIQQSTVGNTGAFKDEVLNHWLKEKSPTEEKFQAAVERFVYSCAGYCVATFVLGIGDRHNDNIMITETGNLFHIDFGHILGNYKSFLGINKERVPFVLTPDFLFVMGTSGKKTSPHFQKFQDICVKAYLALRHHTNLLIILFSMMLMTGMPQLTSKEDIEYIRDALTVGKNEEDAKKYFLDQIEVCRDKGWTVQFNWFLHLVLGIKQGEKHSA
Description: as §1

[2] = system: Akt phosphorylated at Thr308 in PC-3 cells; test: Cellular assay: phosphorylation of Akt (Thr308) in PC-3 cells, MSD ELISA; format: cell-based; conditions: 60 min incubation with compound, read-out: IC50 pAkt_Thr308
Description: as §2, §3, §4, §5, §6

MTOR_h = MTOR_h (Homo sapiens (Human), UniProt P42345); test: KINOMEscan enzyme binding assay, MTOR; conditions: DiscoveRx
Description: as §1

PIK3Cδ_h = PIK3Cδ_h (Homo sapiens (Human), UniProt O00329); test: KINOMEscan enzyme binding assay, PIK3Cδ; conditions: DiscoveRx
Chain of PIK3Cδ_h (O00329 whole entry): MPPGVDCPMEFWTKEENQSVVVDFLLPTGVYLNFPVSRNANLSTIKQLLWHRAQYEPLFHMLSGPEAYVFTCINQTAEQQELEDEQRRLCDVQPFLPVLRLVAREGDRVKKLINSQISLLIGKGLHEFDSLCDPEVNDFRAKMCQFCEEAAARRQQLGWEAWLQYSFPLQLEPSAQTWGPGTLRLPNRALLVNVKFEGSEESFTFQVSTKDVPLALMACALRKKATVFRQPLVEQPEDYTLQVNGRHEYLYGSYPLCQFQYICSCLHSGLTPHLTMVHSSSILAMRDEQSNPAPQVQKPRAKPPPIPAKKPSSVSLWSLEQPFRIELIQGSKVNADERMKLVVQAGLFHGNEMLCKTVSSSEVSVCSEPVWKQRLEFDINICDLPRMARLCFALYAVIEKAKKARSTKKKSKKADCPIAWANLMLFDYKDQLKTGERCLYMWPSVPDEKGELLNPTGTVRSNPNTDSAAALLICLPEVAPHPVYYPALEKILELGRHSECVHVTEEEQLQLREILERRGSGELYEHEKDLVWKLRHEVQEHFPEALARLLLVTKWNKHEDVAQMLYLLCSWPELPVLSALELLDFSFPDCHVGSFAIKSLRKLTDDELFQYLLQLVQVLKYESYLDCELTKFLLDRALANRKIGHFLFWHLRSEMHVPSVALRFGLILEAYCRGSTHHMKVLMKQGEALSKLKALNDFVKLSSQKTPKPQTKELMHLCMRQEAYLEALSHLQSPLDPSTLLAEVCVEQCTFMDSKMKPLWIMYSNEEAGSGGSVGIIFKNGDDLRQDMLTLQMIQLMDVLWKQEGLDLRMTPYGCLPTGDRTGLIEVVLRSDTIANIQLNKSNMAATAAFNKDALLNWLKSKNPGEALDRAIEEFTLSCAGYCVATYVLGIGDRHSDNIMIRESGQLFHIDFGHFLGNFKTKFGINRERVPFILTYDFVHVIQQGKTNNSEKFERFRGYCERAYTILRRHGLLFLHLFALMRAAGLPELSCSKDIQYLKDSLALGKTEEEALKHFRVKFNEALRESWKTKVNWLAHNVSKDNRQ
Description: as §1, with “(www.kinomescan.com). Table A reports the obtained Kd values (nM), with the Kd being the inhibitor binding constant: […]” for “(www.kinomescan.com).”

Chain of PIK3Cα_h (P42336 whole entry): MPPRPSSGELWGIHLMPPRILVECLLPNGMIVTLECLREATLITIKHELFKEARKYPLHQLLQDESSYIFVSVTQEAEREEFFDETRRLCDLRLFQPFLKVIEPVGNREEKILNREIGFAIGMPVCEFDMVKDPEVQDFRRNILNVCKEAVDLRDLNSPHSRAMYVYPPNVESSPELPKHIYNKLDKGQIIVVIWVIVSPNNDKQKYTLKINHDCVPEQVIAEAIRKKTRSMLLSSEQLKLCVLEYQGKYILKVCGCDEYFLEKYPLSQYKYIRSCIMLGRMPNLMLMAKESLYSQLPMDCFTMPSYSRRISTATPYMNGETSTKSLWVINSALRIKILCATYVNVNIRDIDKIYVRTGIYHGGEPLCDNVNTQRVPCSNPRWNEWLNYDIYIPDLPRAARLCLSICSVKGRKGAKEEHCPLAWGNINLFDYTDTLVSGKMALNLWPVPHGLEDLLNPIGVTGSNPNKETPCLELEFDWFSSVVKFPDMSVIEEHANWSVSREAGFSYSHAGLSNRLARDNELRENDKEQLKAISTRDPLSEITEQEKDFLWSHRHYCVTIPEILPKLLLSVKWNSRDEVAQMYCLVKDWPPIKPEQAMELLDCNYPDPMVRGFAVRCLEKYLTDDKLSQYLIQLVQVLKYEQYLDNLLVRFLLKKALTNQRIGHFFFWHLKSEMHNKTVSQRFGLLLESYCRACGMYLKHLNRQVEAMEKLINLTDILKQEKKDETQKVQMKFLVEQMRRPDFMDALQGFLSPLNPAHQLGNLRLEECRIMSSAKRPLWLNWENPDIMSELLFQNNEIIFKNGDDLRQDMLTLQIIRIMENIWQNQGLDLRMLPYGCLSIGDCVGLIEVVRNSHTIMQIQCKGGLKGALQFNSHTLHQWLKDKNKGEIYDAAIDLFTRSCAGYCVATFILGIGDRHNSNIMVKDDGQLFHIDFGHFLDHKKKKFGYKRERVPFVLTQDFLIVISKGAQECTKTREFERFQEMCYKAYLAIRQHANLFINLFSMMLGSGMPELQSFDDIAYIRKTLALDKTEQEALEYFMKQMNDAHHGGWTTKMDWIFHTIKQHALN

pKd (PIK3Cα_h) | pIC50 ([1]; Homo sapiens, PC-3, 1 h) | pKd (PIK3Cβ_h) | pKd (PIK3Cγ_h) | pIC50 ([2]; Homo sapiens, PC-3, 1 h) | pKd (MTOR_h) | pKd (PIK3Cδ_h) | pIC50 [1] | pIC50 [2] | SMILES
4.89 | 6.87 | 8.05 | 5.54 | 7.09 | 4.65 | 7.01 |  |  | Cc1nc2c(N)cc(N3CCOCC3)nn2c1Cc1cccc2c1CNCC2 [Compound 109]
< 4.52 | 6.76 | 8.57 | 5.41 | 6.92 | 5.72 | 6.78 |  |  | Cc1c(F)cccc1Cc1c(CO)nc2c(N)cc(N3CCOCC3)nn12 [Compound 93]
6.20 | 6.94 | 7.66 | 6.07 | 7.08 | 7.07 | 7.36 |  |  | Cc1nc2c(-c3ccn[nH]3)cc(N3CCOCC3)nn2c1Nc1ccccc1N1CCOCC1 [Compound 89]
5.68 | ~6.39 | 8.60 | 5.26 | 6.42 | 4.67 | 7.08 |  |  | Cc1nc2c(C(=O)O)cc(N3CCOC(C)C3)nn2c1Cc1cccc(C(F)(F)F)c1C (stereo not shown) [Compound 28]
4.92 |  | 9.30 | 4.90 |  | 5.10 | 7.32 | 6.85 | 7.01 | Cc1c(Cc2c(COC(=O)C(C)N)nc3c(N)cc(N4CCOCC4)nn23)cccc1C(F)(F)F (stereo not shown) [Compound 84]
5.06 |  | 9.10 | 4.76 |  | 5.05 | 6.92 | 7.57 | 7.35 | Cc1c(Cc2c(COC(=O)C(C)N)nc3c(N)cc(N4CCOCC4)nn23)cccc1C(F)(F)F (stereo not shown) [Compound 79]
4.68 | 7.19 | 8.52 | 4.64 | 7.31 | 4.69 | 6.56 |  |  | Cc1c(Cc2c(CCO)nc3c(N)cc(N4CCOCC4)nn23)cccc1C(F)(F)F [Compound 23]
4.65 | 6.96 | 8.00 | 4.52 | ~7.13 | < 4.52 | 7.46 |  |  | Cc1nc2c(N)cc(N3CCOCC3)nn2c1Nc1cccc(C(F)(F)F)c1CN1CCCC1 [Compound 62]
5.77 | 7.48 | 8.66 | 5.32 | ~7.60 | < 5.00 | 7.07 |  |  | Cc1c(Cc2c(CO)nc3c(-c4ncc[nH]4)cc(N4CCOCC4)nn23)cccc1C(F)(F)F [Compound 20]
4.78 | < 6.29 | 7.74 | 4.98 | 6.38 | 5.24 | 5.85 |  |  | Cc1nc2c(N)cc(N3CCOCC3)nn2c1Cc1cccc(F)c1CO [Compound 94]
6.28 | < 6.29 | 9.30 | 5.45 | ~6.58 | 5.02 | 7.25 |  |  | Cc1nc2c(C(=O)O)cc(N3CCOCC3)nn2c1Cc1cccc(Cl)c1C [Compound 13]
5.75 | < 6.29 | 8.00 | 4.88 | < 6.29 | 4.71 | 6.93 |  |  | Cc1nc2c(C(=O)O)cc(N3CCOCC3)nn2c1Nc1ccccc1N1CCOCC1 [Compound 86]
5.57 | ~6.80 | 7.68 | 5.16 | 6.45 | 4.65 | 6.02 |  |  | Cc1nc2c(C(N)=O)cc(N3CCOCC3)nn2c1Cc1cccc(Cl)c1C [Compound 11]

The next lines start with the molecule.

SMILES | pKd (PIK3Cα_h) | pIC50 ([1]; Homo sapiens, PC-3, 1 h) | pKd (PIK3Cβ_h) | pKd (PIK3Cγ_h) | pIC50 ([2]; Homo sapiens, PC-3, 1 h) | pKd (MTOR_h) | pKd (PIK3Cδ_h) | pIC50 [1] | pIC50 [2]
Cc1nc2c(N)cc(N3CCOCC3)nn2c1Nc1cccc(F)c1CN1CCOCC1 [Compound 63] | 5.38 | 6.86 | 8.66 | 4.70 | 7.02 | 5.50 | 7.38 |  | 
Cc1c(Cc2c(CO)nc3c(N)cc(N4CCOCC4)nn23)cccc1C(F)(F)F [Compound 14a] | < 4.52 |  | 8.92 | < 5.00 |  | 5.17 | 6.65 | ~7.34 | 7.42
Cc1nc2c(N)cc(N3CCOCC3)nn2c1Nc1cccc(C(F)(F)F)c1CN1CCS(=O)(=O)CC1 [Compound 43] | 5.48 | ~6.47 | 8.70 | 5.11 | 6.77 | < 4.52 | 7.33 |  | 
Cc1nc2c(N)cc(N3CCOCC3)nn2c1Nc1ccccc1CN1CCOCC1 [Compound 69] | 5.27 | 6.73 | 7.82 | 4.61 | 6.82 | 5.82 | 7.25 |  | 
Cc1nc2c(-c3cnc[nH]3)cc(N3CCOCC3)nn2c1Nc1cccc(C(F)(F)F)c1CN1CC(O)C1 [Compound 46] | 6.18 | 6.76 | 8.52 | 6.13 | 7.77 | 5.91 | 7.96 |  | 
Cc1nc2c(N)cc(N3CCOCC3)nn2c1Nc1cccc(C(F)(F)F)c1CN1CCC2(C1)CS(=O)(=O)C2 [Compound 49] | 4.87 | 7.35 | 8.05 | < 4.52 | ~7.68 | < 4.52 | 6.48 |  | 
Cc1c(Cc2c(CF)nc3c(N)cc(N4CCOCC4)nn23)cccc1C(F)(F)F [Compound 17] | 4.77 | 7.09 | 8.48 | 4.80 | ~7.30 | 4.85 | 6.37 |  | 
Cc1nc2c(-c3ncc[nH]3)cc(N3CCOCC3)nn2c1Nc1cccc(C(F)(F)F)c1C [Compound 34] | 5.65 | ~7.25 | 8.52 | 5.16 | ~7.49 | < 5.00 | 7.09 |  | 
Cc1cccc(Nc2c(C)nc3c(N)cc(N4CCOCC4)nn23)c1C [Compound 39] | 5.59 | 7.47 | 8.96 | 5.07 | ~7.37 | 5.31 | 7.51 |  | 
Cc1c(Cc2c(CO)nc3c(N)cc(N4CCOCC4)nn23)cccc1C(F)(F)F [Compound 14b] | < 5.00 |  | 8.82 | < 5.09 |  | < 4.52 | 6.60 | 7.22 | 7.42
Cc1c(Cc2c(CN)nc3c(N)cc(N4CCOCC4)nn23)cccc1C(F)(F)F [Compound 85] | < 4.64 | 6.94 | 9.15 | 5.13 | 7.07 | 5.57 | 7.12 |  | 
Cc1nc2c(-c3cnc[nH]3)cc(N3CCOCC3)nn2c1Cc1cccc(C(F)(F)F)c1C [Compound 5] | 6.21 | ~7.23 | 8.22 | 4.99 | ~7.32 | 5.62 | 6.50 |  | 
Cc1nc2c(N)cc(N3CCOCC3)nn2c1Nc1cccc(C(F)(F)F)c1CN1CC2(CCS2(=O)=O)C1 [Compound 53] | 5.00 | ~6.75 | 8.30 | 4.71 | ~7.06 | < 4.52 | 7.14 |  | 
Cc1c(Cc2c(COC(=O)C(N)Cc3ccccc3)nc3c(N)cc(N4CCOCC4)nn23)cccc1C(F)(F)F (stereo not shown) [Compound 80] | < 4.52 | 6.68 | 7.36 | < 4.52 | ~6.71 | < 4.52 | 5.22 |  | 
Cc1nc2c(N)cc(N3CCOCC3)nn2c1Nc1cccc(C(F)(F)F)c1CN1CCOCC1 [Compound 38] | 5.39 | 7.74 | 8.40 | 4.89 | 8.00 | 5.03 | 7.82 |  | 
